Legend:
Format in all cases: cell-based
[1] = system: voltage-gated Ca2+ channels expressed in GH3 cells; assay: Photosensitization of voltage-gated Ca2+ channels expressed in GH3 cells
[2] = system: voltage-gated Na+ channels expressed in GH3 cells; assay: Photosensitization of voltage-gated Na+ channels expressed in GH3 cells
[3] = system: endogenous K+ channels in dissociated hippocampal neurons; settings: 20 μM extracellular treatment, Iss at +40 mV, n = 10
[4] = system: Sh-IR; settings: isomer that blocks Sh-IR

Compound	photosensitization of voltage-gated Ca2+ channels [1]	photosensitization of voltage-gated Na+ channels [2]	% of Iss blocked (380 vs 500 nm) [3]	Active Isomer [4]
CC[N+](CC)(CC)CC(=O)Nc1ccc(/N=N/c2ccc(NC(=O)c3ccccc3)cc2)cc1 [Compound 7, Benzoyl-Azo-QA]	did not photosensitize	did not photosensitize	35.5% ± 4.7	trans
Propyl-Azo-QA [Compound 10]				preferentially blocks in the cis form
C=CC(=O)Nc1ccc(N=Nc2ccc(NC(=O)C[N+](CC)(CC)CC)cc2)cc1 [Compound 1]				trans
